Where a SMILES comes first, the peptide text is derived from it. [ ]: non-standard residue; d: D form. The star is where a group is joined. Cha = N[C@@H](CC1CCCCC1)C(=O)O; dChg = N[C@@H](C(=O)O)C1CCCCC1; pNA = O=[N+]([O-])c1ccc(N*)cc1; dAbu = CC[C@@H](N)C(=O)O; Abu = CC[C@H](N)C(=O)O; Ms = CS(=O)(=O)*
Columns and labels:
Format in all cases: biochemical
[1] = biological target: Factor Xa (Homo sapiens, UniProt P00742); test: Enzymic hydrolysis of chromogenic substrate by Factor Xa (ΔOD/min); conditions: equimolar doses, activity of reference CP 1 taken as 100%
Procedure: (§1) The tripeptide compounds of formula I and their addition salts are useful in the determination of the enzymes involved in hemostasis. In particular, they constitute specific substrates for Factor Xa, plasmin or thrombin. The recommended method of determining these enzymes comprises bringing a given amount of a tripeptide of formula I or of one of its addition salts (at a concentration of the order of 10 mg/ml) into contact, in an appropriate aqueous liquid medium such as a buffered isotonic solution, with a test sample (diluted if appropriate) which may contain the target enzyme, for at least 0.5 h at a temperature of between RT and 40° C., especially 37° C.
(§2) The activity of the tripeptides according to the invention towards enzymes involved in hemostasis was determined by conventional methods such as those described in EP-A-0 280 160 (see page 14), the hydrolysis rate being assessed by the variation in optical density with time (ΔOD/min). The results obtained have been collated in Table II below, where the activity of reference products (CP 1 to CP 3) is specified as being equal to 100% for the sake of convenience.
(§3) Table II below summarizes the results of the comparative tests which were carried out at equimolar doses with the products of the invention and with standard substances, whose activity was taken as being equal to 100%.

[2] = biological target: Thrombin (Homo sapiens, UniProt P00734); test: Enzymic hydrolysis of chromogenic substrate by thrombin (ΔOD/min); conditions: for Activity towards Thrombin (hydrolysis rate relative to reference): equimolar doses, activity of reference CP 2 taken as 100%, hydrolysis rate as ΔOD/min
Procedure: as §1, §2, §3

[3] = biological target: Plasmin (Homo sapiens, UniProt P00747); test: Enzymic hydrolysis of chromogenic substrate by plasmin (ΔOD/min); conditions: equimolar doses, activity of reference CP 3 taken as 100%
Procedure: as §1, §2, §3

Factor Xa, sequence (P00742 235-488 limits assumed): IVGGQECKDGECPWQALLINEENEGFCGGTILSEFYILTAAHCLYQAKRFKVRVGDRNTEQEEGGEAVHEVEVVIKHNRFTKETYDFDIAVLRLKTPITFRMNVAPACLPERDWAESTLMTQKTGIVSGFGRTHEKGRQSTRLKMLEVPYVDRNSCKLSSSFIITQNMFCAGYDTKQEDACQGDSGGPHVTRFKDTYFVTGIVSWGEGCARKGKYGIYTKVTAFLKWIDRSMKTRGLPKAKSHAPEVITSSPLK
Factor Xa, sequence (P00742 41-179 partner limits assumed): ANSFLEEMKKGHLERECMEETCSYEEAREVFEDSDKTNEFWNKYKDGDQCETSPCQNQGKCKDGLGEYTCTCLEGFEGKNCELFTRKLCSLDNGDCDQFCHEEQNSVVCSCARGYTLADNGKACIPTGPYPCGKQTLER
Plasmin, sequence (P00747 581-810 limits assumed, species assumed): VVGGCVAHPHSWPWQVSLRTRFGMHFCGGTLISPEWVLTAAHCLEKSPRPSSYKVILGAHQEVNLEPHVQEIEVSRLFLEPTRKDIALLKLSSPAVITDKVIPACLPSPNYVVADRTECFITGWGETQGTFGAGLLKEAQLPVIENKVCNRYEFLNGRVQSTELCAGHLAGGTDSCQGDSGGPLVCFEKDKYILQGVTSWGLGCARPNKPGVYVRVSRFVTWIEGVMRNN
Plasmin, sequence (P00747 97-580 partner limits assumed, species assumed): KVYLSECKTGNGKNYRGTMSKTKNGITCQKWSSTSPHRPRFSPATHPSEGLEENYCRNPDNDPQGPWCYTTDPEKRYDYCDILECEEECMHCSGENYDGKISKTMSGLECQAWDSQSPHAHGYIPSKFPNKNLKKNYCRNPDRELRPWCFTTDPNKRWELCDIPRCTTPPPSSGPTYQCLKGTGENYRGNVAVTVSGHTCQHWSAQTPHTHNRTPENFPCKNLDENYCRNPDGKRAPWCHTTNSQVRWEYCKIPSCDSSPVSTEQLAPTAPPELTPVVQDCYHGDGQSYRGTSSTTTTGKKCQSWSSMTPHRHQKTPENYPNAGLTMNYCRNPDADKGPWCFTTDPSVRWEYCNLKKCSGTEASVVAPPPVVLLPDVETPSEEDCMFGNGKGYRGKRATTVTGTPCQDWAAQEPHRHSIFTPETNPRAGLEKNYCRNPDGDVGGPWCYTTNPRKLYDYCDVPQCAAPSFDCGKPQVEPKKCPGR

Activity towards Xa (hydrolysis rate relative to reference) [1] [%] | Activity towards Thrombin (hydrolysis rate relative to reference) [2] [%] | Activity towards Plasmin (hydrolysis rate relative to reference) [3] [%] | Molecule | Sensitivity towards thrombin compared with reference substrate ([2]; in words, versus CP 1 as printed)
45 | 21 | 112 | PEG200 (CO-D-CHA-Gly-L-Arg-pNA)2 [Ex. 7] | –
105 | 23 | 188 | PEG200 (D-Leu-Gly-L-Arg-pNA)2.2AcOH [Ex. 6] | –
60 | 25 | 150 | PEG300 (D-Leu-Gly-L-Arg-pNA)2.2AcOH [Ex. 8] | –
74 | 34 | 165 | PEG400 (D-Leu-Gly-L-Arg-pNA)2.2AcOH [Ex. 9] | –

The next lines start with the molecule.

Molecule | Activity towards Xa (hydrolysis rate relative to reference) [1] [%] | Activity towards Thrombin (hydrolysis rate relative to reference) [2] [%] | Activity towards Plasmin (hydrolysis rate relative to reference) [3] [%] | Sensitivity towards thrombin compared with reference substrate ([2]; in words, versus CP 1 as printed)
CC(C)C[C@@H](NS(C)(=O)=O)C(=O)NCC(=O)N[C@@H](CCCNC(=N)N)C(=O)Nc1ccc([N+](=O)[O-])cc1 [CP 1, MeSO2D-Leu--GlyL-Arg-pNA.AcOH, reference compound] (Ms-[dL]-Gly-Arg-pNA) | 100 | 18 | 30 | –
CC[C@H](NC(=O)[C@H](N)C1CCCCC1)C(=O)N[C@@H](CCCNC(=N)N)C(=O)Nc1ccc([N+](=O)[O-])cc1 [CP 2, HD-CHG-L-Abu-L-Arg-pNA.2AcOH, reference compound] (H-[dChg]-[Abu]-Arg-pNA) | 14 | 100 | 77 | –
CC[C@@H](N)C(=O)N[C@@H](CC1CCCCC1)C(=O)N[C@@H](CCCNC(=N)N)C(=O)Nc1ccc([N+](=O)[O-])cc1 [CP 3, HD-Abu-L-CHA-L-Arg-pNA.2AcOH, reference compound] (H-[dAbu]-[Cha]-Arg-pNA) | 14 | 10 | 100 | –
PEG200 (D-Glu(OBzl)-L-Pro-L-Arg-pNA)2.2AcOH [Ex. 4] | 11 | 45 | 289 | –
PEG200 (D-Nle-L-CHA-L-Arg-pNA)2.2AcOH [Ex. 5] | 20 | 110 | 15 | more sensitive than the reference substrate CP 1
PEG200 (Gly-L-Pro-L-Arg-pNA)2.2AcOH [Ex. 2] | 6 | 34 | 130 | –
PEG600 (CO-Gly-L-Pro-L-Arg-pNA)2 [Ex. 3] | 10 | 50 | 122 | –

Source: patent US5225532A, “Symmetrical bipeptides containing a polyalkylene glycol residue, method of preparation and use in the assay of proteases” (Serbio, priority 1990, dated 1993)
